The supplement of paper PMC8967900

How the values were obtained:
Assay in all cases: selective drug sensitivity score (sDSS, relative to normal bone marrow) (sDSS (score)); higher = more potent and effective on the cell line relative to normal bone marrow cells
Settings in all cases: 72 h
KARPAS-45 = system: KARPAS-45
NALL-1 = system: NALL-1
LC4-1 = system: LC4-1
HAL-01 = system: HAL-01
KOPN-8 = system: KOPN-8
COG-LL-332h = system: COG-LL-332h
MHH-CALL-4 = system: MHH-CALL-4
CCRF-HSB2 = system: CCRF-HSB2
PF-382 = system: PF-382
KASUMI-2 = system: KASUMI-2
MOLT-16 = system: MOLT-16
SEM cells = system: SEM cells
NALM-6 = system: NALM-6
TMD5 = system: TMD5
RPMI-8402 = system: RPMI-8402
SUP-B15 = system: SUP-B15
697 = system: 697
COG-LL-402h = system: COG-LL-402h
MHH-CALL-3 = system: MHH-CALL-3
CCRF-CEM = system: CCRF-CEM
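Also: ALL cell lines in 384-well plates, five doses spanning 10,000-fold, each plate scaled between vehicle and 100 µmol/L benzalkonium chloride controls, sDSS an adapted area-under-curve metric.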

Row | SMILES | selective drug sensitivity score (KARPAS-45) | selective drug sensitivity score (NALL-1) | selective drug sensitivity score (LC4-1) | selective drug sensitivity score (HAL-01) | selective drug sensitivity score (KOPN-8) | selective drug sensitivity score (COG-LL-332h) | selective drug sensitivity score (MHH-CALL-4) | selective drug sensitivity score (CCRF-HSB2) | selective drug sensitivity score (PF-382) | selective drug sensitivity score (KASUMI-2) | selective drug sensitivity score (MOLT-16) | selective drug sensitivity score (SEM cells) | selective drug sensitivity score (NALM-6) | selective drug sensitivity score (TMD5) | selective drug sensitivity score (RPMI-8402) | selective drug sensitivity score (SUP-B15) | selective drug sensitivity score 697 | selective drug sensitivity score (COG-LL-402h) | selective drug sensitivity score (MHH-CALL-3) | selective drug sensitivity score (CCRF-CEM)
1 | Nc1cc(COc2c(Cl)cc(C[C@H](N)C(=O)O)cc2Cl)c2oc(-c3ccccc3)nc2c1 [JPH203] (top concentration 5000 nM) | 0 | 0 | 0 | 0.4 | 0 | 0 | 1.2 | 0 | 0 | 0 | 0 | 0 | 0 | 2.1 | 0.5 | 0 | 0 | 0 | 0 | 0
2 | CNC(=O)c1ccc(-c2cnc3ncc(Cc4ccc5ncccc5c4)n3n2)cc1F [Capmatinib] (top concentration 1000 nM) | -0.06 | -0.06 | 0.64 | 2.34 | -0.06 | -0.06 | -0.06 | -0.06 | -0.06 | -0.06 | 0.04 | -0.06 | 0.24 | -0.06 | -0.06 | -0.06 | -0.06 | 0.74 | -0.06 | 0.04
3 | NC(=S)N/N=C/c1ncccc1N [Triapine] (top concentration 10000 nM) | -0.12 | 3.48 | 1.78 | 2.18 | 1.78 | 2.78 | 2.18 | 8.48 | 1.28 | 2.38 | 4.68 | 2.18 | 4.48 | 2.28 | 2.38 | 2.48 | 5.88 | 9.28 | 2.08 | 2.68
4 | CS(=O)(=O)CCNCc1ccc(-c2ccc3ncnc(Nc4ccc(OCc5cccc(F)c5)c(Cl)c4)c3c2)o1 [Lapatinib] (top concentration 1000 nM) | 0 | 0 | 0 | 2.2 | 0 | 0 | 0 | 0 | 0 | 0 | 0 | 0 | 0 | 0 | 0 | 0 | 0 | 0 | 0 | 0
5 | C[C@]12CC[C@@H]3c4ccc(O)cc4C[C@@H](CCCCCCCCC[S+]([O-])CCCC(F)(F)C(F)(F)F)[C@H]3[C@@H]1CC[C@@H]2O (stereo not given in full) [Fulvestrant] (top concentration 1000 nM) | 0 | 1.6 | 0 | 0 | 0 | 0 | 0 | 0 | 0 | 0 | 0 | 0 | 0 | 2.3 | 0 | 0 | 0 | 0 | 0 | 0
6 | Cc1cc2c(C(=O)NC[C@H](C)c3ccccc3)c(O)c(O)cc2c(O)c1-c1c(C)cc2c(C(=O)NC[C@H](C)c3ccccc3)c(O)c(O)cc2c1O [Sabutoclax] (top concentration 25000 nM) | 16.2 | -8.22 | 13.8 | -7.62 | 17.9 | 12.8 | -7.22 | 16.3 | 11.1 | 11.3 | 17.6 | 10.4 | 14.3 | -7.42 | 4.38 | 16 | 15.9 | 15.3 | -8.12 | 13.8
7 | COc1cc(N2CCC(N3CCN(C)CC3)CC2)ccc1Nc1ncnc(Nc2ccccc2S(=O)(=O)C(C)C)n1 [ASP3026] (top concentration 10000 nM) | 0.56 | -2.64 | -0.44 | 1.76 | -2.64 | -0.04 | -3.94 | 5.06 | -0.04 | -4.04 | -1.54 | 1.66 | 1.86 | -1.84 | 0.56 | 1.16 | -0.84 | 1.76 | -4.04 | -0.14
8 | CC(C)Cn1cnc2c(N)nc3ccccc3c21 [Imiquimod] (top concentration 2500 nM) | 0 | 0 | 0.3 | 2.6 | 2.7 | 0 | 0.9 | 0.4 | 0 | 1.5 | 0.5 | 0 | 0.4 | 4.4 | 0 | 0.3 | 0.4 | 0 | 0 | 0
9 | CC[C@H](C)C(=O)O[C@H]1C[C@H](O)C=C2C=C[C@H](C)[C@H](CC[C@@H](O)C[C@@H](O)CC(=O)O)[C@H]21 [Pravastatin] (top concentration 10000 nM) | -0.66 | -0.66 | 3.04 | 0.64 | -0.66 | -0.66 | -0.66 | -0.66 | -0.66 | -0.66 | -0.66 | -0.66 | -0.66 | -0.66 | -0.66 | 0.04 | -0.66 | -0.46 | 0.74 | -0.46
